Laboratory results taken from patent US9969742B2, “Imidazotriazinone compounds” (Ironwood Pharmaceuticals, Inc., priority 2012, dated 2018).
Where two headings read alike, the source gives them in different places.

Key:
Type in all cases: biochemical
[1] = molecular target: T1, PDE9A2 (Homo sapiens, UniProt O76083); assay: Phosphodiesterase enzyme screening assay, PDE9A2
T1 construct: purchased Reaction Biology Corporation, Malvern, Pa
How it was run: (§1)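 Recombinant enzymes were run in 100 mM HEPES pH 7.5, 5 mM MgCl2, 1 mM DTT, 0.003% Brij with 4.0 μM cGMP substrate, started with cGMP or cAMP, 1 h at RT, and stopped with EDTA. Fluorescent substrate and product were separated by microfluidic mobility shift.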

[2] = molecular target: T2, PDE1A (Homo sapiens, UniProt P54750); assay: Phosphodiesterase enzyme screening assay, PDE1A
T2 construct: purchased Reaction Biology Corporation, Malvern, Pa
T2 sequence (P54750 whole entry): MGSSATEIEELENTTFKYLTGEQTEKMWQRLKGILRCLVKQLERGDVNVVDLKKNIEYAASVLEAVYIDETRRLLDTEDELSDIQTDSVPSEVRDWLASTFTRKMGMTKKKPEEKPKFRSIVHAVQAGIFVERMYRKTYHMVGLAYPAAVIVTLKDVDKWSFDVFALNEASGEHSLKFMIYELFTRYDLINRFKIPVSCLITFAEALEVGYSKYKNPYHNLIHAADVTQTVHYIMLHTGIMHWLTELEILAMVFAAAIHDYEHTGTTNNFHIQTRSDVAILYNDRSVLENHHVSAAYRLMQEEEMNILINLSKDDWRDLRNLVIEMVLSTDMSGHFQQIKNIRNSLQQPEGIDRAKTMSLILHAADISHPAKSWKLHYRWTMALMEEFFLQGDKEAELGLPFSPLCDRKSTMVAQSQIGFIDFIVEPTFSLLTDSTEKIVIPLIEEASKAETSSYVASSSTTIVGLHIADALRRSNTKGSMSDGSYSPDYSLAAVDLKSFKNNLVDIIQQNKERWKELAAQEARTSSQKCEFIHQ
How it was run: as §1

[3] = molecular target: T3, PDE1B (Homo sapiens, UniProt Q01064); assay: Phosphodiesterase enzyme screening assay, PDE1B
T3 construct: purchased Reaction Biology Corporation, Malvern, Pa
T3 sequence (Q01064 whole entry): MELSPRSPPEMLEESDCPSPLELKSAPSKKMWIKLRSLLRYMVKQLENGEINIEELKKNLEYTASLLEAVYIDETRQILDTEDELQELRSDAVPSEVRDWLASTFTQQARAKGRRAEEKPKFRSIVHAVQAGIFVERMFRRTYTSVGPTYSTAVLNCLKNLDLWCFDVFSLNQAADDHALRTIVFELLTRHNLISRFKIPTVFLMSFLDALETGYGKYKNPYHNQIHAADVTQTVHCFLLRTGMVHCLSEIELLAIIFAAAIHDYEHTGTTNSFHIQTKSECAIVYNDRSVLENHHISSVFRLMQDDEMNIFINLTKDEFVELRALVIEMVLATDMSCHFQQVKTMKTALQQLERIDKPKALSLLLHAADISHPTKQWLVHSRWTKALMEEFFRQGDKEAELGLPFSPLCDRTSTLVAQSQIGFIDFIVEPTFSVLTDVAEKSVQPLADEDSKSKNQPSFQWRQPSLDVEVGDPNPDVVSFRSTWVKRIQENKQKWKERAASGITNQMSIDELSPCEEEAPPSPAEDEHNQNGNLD
How it was run: as §1

[4] = IC50 band, 4.0 μM cGMP substrate, 1 hour at R.T.
[5] = ratio of IC50 values PDE1A vs PDE9A2, value greater than 1 indicates greater selectivity for PDE9A2
[6] = ratio of IC50 values PDE1B vs PDE9A2, value greater than 1 indicates greater selectivity for PDE9A2
[7] = ratio of IC50 values, PDE1A versus PDE9A2, value greater than 1 indicates greater selectivity for PDE9A2
[8] = ratio of IC50 values, PDE1B versus PDE9A2, value greater than 1 indicates greater selectivity for PDE9A2
[9] = 4.0 μM cGMP substrate, 1 hour at R.T., read-out: Band (PDE9A2 IC50)
[10] = ratio of IC50 values PDE1A / PDE9A2, value greater than 1 = greater selectivity for PDE9A2
[11] = ratio of IC50 values PDE1B / PDE9A2, value greater than 1 = greater selectivity for PDE9A2
[12] = Table 2, 10 concentrations, 4.0 μM cGMP substrate, 1 hour at R.T., read-out: Band (PDE9A2 IC50)
[13] = Table 2, ratio of IC50 values, value greater than 1 indicates greater selectivity for PDE9A2
[14] = Table 1, 10 concentrations, 4.0 μM cGMP substrate, 1 hour at R.T., read-out: Band (PDE9A2 IC50)
[15] = Table 1, ratio of IC50 values, value greater than 1 indicates greater selectivity for PDE9A2
[16] = Table 3, 4.0 μM cGMP substrate, 1 hour at R.T., read-out: Band (PDE9A2 IC50)
[17] = ratio of IC50 values, PDE1A versus PDE9A2, value greater than 1 = greater selectivity for PDE9A2
[18] = ratio of IC50 values, PDE1B versus PDE9A2, value greater than 1 = greater selectivity for PDE9A2

T1 sequence (O76083 1-533 isoform O76083-2): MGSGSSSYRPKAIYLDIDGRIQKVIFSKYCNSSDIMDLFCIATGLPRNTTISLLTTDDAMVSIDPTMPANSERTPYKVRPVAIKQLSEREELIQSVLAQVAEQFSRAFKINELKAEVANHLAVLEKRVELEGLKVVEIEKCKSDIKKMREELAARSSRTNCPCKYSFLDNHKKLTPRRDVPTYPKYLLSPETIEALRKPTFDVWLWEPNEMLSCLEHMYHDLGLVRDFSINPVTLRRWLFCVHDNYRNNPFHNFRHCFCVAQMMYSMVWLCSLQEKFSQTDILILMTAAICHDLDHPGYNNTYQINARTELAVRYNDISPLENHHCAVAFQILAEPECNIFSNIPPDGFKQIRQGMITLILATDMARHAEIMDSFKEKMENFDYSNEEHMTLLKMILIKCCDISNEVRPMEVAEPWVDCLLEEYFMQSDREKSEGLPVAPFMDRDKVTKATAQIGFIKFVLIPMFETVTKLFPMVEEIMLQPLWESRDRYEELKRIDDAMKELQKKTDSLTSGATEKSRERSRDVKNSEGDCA

With `Cc1cc(F)ccc1-c1ncc2c(=O)[nH]c(C3CN(Cc4nc5ccccc5[nH]4)CC3C)nn12` (single isomer, unassigned; (+)) [(+)-2-((3,4-trans)-1-((1H-benzo[d]imidazol-2-yl)methyl)-4-methylpyrrolidin-3-yl)-7-(4-fluoro-2-methylphenyl)imidazo[5,1-f][1,2,4]triazin-4(3H)-one] the IC50 [1, 4] was < 1000 nM, the “PDE1A selectivity (versus PDE9A2)” value [2, 5] was 1438 and the “PDE1B selectivity (versus PDE9A2)” value [3, 6] was 2500.

For `Cc1ccccc1-c1ncc2c(=O)[nH]c(C3CN(Cc4nc5ccccc5[nH]4)CC3C)nn12` (single isomer, unassigned; (+)) [(+)-2-((3,4-trans)-1-((1H-benzo[d]imidazol-2-yl)methyl)-4-methylpyrrolidin-3-yl)-7-(o-tolyl)imidazo[5,1-f][1,2,4]triazin-4(3H)-one], the IC50 ([1]; read-out: Band (PDE9A2 IC50)) was < 1000 nM, the “PDE1A selectivity (versus PDE9A2)” value [2, 7] was 1740 and the “PDE1B selectivity (versus PDE9A2)” value [3, 8] was 2990.

For `CC1CN(Cc2ccc(F)c(C#N)c2)CC1c1nn2c(C3CCOCC3)ncc2c(=O)[nH]1` (single isomer, unassigned; (+)) [(+)-2-fluoro-5-(((3,4-trans)-3-methyl-4-(4-oxo-7-(tetrahydro-2H-pyran-4-yl)-3,4-dihydroimidazo[5,1-f][1,2,4]triazin-2-yl)pyrrolidin-1-yl)methyl)benzonitrile], the IC50 [1, 9] was < 1000 nM, the “PDE1A selectivity (versus PDE9A2)” value [2, 10] was 61 and the “PDE1B selectivity (versus PDE9A2)” value [3, 11] was 58.

`CCC(CC)c1ncc2c(=O)[nH]c(C3CN(Cc4ccccc4)CC3C)nn12` (single isomer, unassigned; (+)) [(+)-2-((3,4-trans)-1-benzyl-4-methylpyrrolidin-3-yl)-7-(pentan-3-yl)imidazo[5,1-f][1,2,4]triazin-4(3H)-one] was tested, and the IC50 ([1]; read-out: Band (PDE9A2 IC50)) was < 1000 nM, the “PDE1A selectivity (versus PDE9A2)” value [2, 7] was 175 and the “PDE1B selectivity (versus PDE9A2)” value [3, 8] was 86.

With `CC1CN(Cc2ncc(C3CC3)cn2)CC1c1nn2c(C3CCOCC3)ncc2c(=O)[nH]1` (single isomer, unassigned; (+)) [(+)-2-((3,4-trans)-1-((5-cyclopropylpyrimidin-2-yl)methyl)-4-methylpyrrolidin-3-yl)-7-(tetrahydro-2H-pyran-4-yl)imidazo[5,1-f][1,2,4]triazin-4(3H)-one] the IC50 [1, 12] was < 1000 nM, the “PDE1A selectivity (versus PDE9A2)” value [2, 13] was 151 and the “PDE1B selectivity (versus PDE9A2)” value [3, 13] was 670.

In the case of `CC1CN(Cc2ccccc2)CC1c1nn2c(C3CCOCC3)ncc2c(=O)[nH]1` (single isomer, unassigned; (-)) [(−)-2-((3,4-trans)-1-benzyl-4-methylpyrrolidin-3-yl)-7-(tetr] [(−)-2-((3,4-trans)-1-benzyl-4-methylpyrrolidin-3-yl)-7-(tetrahydro-2H-pyran-4-yl)imidazo[1,5-f][1,2,4]triazin-4(3H)-one], the IC50 [1, 14] is reported as < 1000 nM, the “PDE1A selectivity (versus PDE9A2)” value [2, 15] is reported as 465 and the “PDE1B selectivity (versus PDE9A2)” value [3, 15] is reported as 550.

With `CC1CN(Cc2cc(F)cc(F)c2)CC1c1nn2c(C3CCOCC3)ncc2c(=O)[nH]1` (single isomer, unassigned; (+)) [(+)-2-((3,4-trans)-1-(3,5-difluorobenzyl)-4-methylpyrrolidin-3-yl)-7-(tetrahydro-2H-pyran-4-yl)imidazo[1,5-f][1,2,4]triazin-4(3H)-one] the IC50 [1, 14] was < 1000 nM, the “PDE1A selectivity (versus PDE9A2)” value [2, 15] was 1710 and the “PDE1B selectivity (versus PDE9A2)” value [3, 15] was 1043.

For `Cc1cc(F)ccc1-c1ncc2c(=O)[nH]c(C3CN(Cc4cnccn4)CC3C)nn12` (single isomer, unassigned; (+)) [(+)-7-(4-fluoro-2-methylphenyl)-2-((3,4-trans)-4-methyl-1-(pyrazin-2-ylmethyl)pyrrolidin-3-yl)imidazo[5,1-f][1,2,4]triazin-4(3H)-one], the IC50 [1, 4] was < 1000 nM, the “PDE1A selectivity (versus PDE9A2)” value [2, 5] was 342 and the “PDE1B selectivity (versus PDE9A2)” value [3, 6] was 393.

In the case of `CC1CN(Cc2cc(Cl)ccc2F)CC1c1nn2c(C3CCOCC3)ncc2c(=O)[nH]1` (single isomer, unassigned; (+)) [(+)-2-((3,4-trans)-1-(5-chloro-2-fluorobenzyl)-4-methylpyrrolidin-3-yl)-7-(tetrahydro-2H-pyran-4-yl)imidazo[5,1-f][1,2,4]triazin-4(3H)-one], the IC50 [1, 9] is reported as < 1000 nM, the “PDE1A selectivity (versus PDE9A2)” value [2, 10] is reported as 15 and the “PDE1B selectivity (versus PDE9A2)” value [3, 11] is reported as 16.

In the case of `COc1cccc(CN2CC(C)C(c3nn4c(C5CCOCC5)ncc4c(=O)[nH]3)C2)c1` (single isomer, unassigned; (+)) [(+)-2-((3,4-trans)-1-(3-methoxybenzyl)-4-methylpyrrolidin-3-yl)-7-(tetrahydro-2H-pyran-4-yl)imidazo[5,1-f][1,2,4]triazin-4(3H)-one], the IC50 [1, 14] is reported as < 1000 nM, the “PDE1A selectivity (versus PDE9A2)” value [2, 15] is reported as 1347 and the “PDE1B selectivity (versus PDE9A2)” value [3, 15] is reported as 477.

In the case of `C[C@@H]1CN(Cc2cn3ncccc3n2)C[C@H]1c1nn2c(C3CCOCC3)ncc2c(=O)[nH]1` (relative stereo) [(+)-2-((3,4-trans)-1-(imidazo[1,2-b]pyridazin-2-ylmethyl)-4-methylpyrrolidin-3-yl)-7-(tetrahydro-2H-pyran-4-yl)imidazo[5,1-f][1,2,4]triazin-4(3H)-one], the IC50 [1, 14] is reported as < 1000 nM, the “PDE1A selectivity (versus PDE9A2)” value [2, 15] is reported as 1005 and the “PDE1B selectivity (versus PDE9A2)” value [3, 15] is reported as 1413.

For `CC1CN(Cc2cnccn2)CC1c1nn2c(-c3ccc(F)cc3)ncc2c(=O)[nH]1` (single isomer, unassigned; (+)) [(+)-7-(4-fluorophenyl)-2-((3,4-trans)-4-methyl-1-(pyrazin-2-ylmethyl)pyrrolidin-3-yl)imidazo[5,1-f][1,2,4]triazin-4(3H)-one], the IC50 ([1]; read-out: Band (PDE9A2 IC50)) was < 1000 nM, the “PDE1A selectivity (versus PDE9A2)” value [2, 7] was 9 and the “PDE1B selectivity (versus PDE9A2)” value [3, 8] was 8.

`CC1CN(Cc2cccc(C3CC3)c2)CC1c1nn2c(C3CCOCC3)ncc2c(=O)[nH]1` (single isomer, unassigned; (+)) [(+)-2-((3,4-trans)-1-(3-cyclopropylbenzyl)-4-methylpyrrolidin-3-yl)-7-(tetrahydro-2H-pyran-4-yl)imidazo[5,1-f][1,2,4]triazin-4(3H)-one] was tested, and the IC50 [1, 14] was < 1000 nM, the “PDE1A selectivity (versus PDE9A2)” value [2, 15] was 703 and the “PDE1B selectivity (versus PDE9A2)” value [3, 15] was 903.

With `CC1CN(Cc2ccc3cccc(F)c3n2)CC1c1nn2c(C3CCOCC3)ncc2c(=O)[nH]1` (single isomer, unassigned; (+)) [(+)-2-((3,4-trans)-1-((8-fluoroquinolin-2-yl)methyl)-4-methylpyrrolidin-3-yl)-7-(tetrahydro-2H-pyran-4-yl)imidazo[5,1-f][1,2,4]triazin-4(3H)-one] the IC50 [1, 16] was < 1000 nM, the “PDE1A selectivity (versus PDE9A2)” value [2, 17] was 39 and the “PDE1B selectivity (versus PDE9A2)” value [3, 18] was 76.

For `COc1cnc(CN2CC(C)C(c3nn4c(C5CCOCC5)ncc4c(=O)[nH]3)C2)nc1` (single isomer, unassigned; (+)) [(+)-2-((3,4-trans)-1-((5-methoxypyrimidin-2-yl)methyl)-4-methylpyrrolidin-3-yl)-7-(tetrahydro-2H-pyran-4-yl)imidazo[5,1-f][1,2,4]triazin-4(3H)-one], the IC50 [1, 12] was < 1000 nM, the “PDE1A selectivity (versus PDE9A2)” value [2, 13] was 26 and the “PDE1B selectivity (versus PDE9A2)” value [3, 13] was 64.

`CC1CN(CCc2ccccc2)CC1c1nn2c(C3CCOCC3)ncc2c(=O)[nH]1` (single isomer, unassigned; (+)) [(+)-2-((3,4-trans)-4-methyl-1-phenethylpyrrolidin-3-yl)-7-(tetrahydro-2H-pyran-4-yl)imidazo[5,1-f][1,2,4]triazin-4(3H)-one] was tested, and the IC50 [1, 14] was < 1000 nM, the “PDE1A selectivity (versus PDE9A2)” value [2, 15] was 28 and the “PDE1B selectivity (versus PDE9A2)” value [3, 15] was 23.

In the case of `CC1CN(Cc2ccnn2C)CC1c1nn2c(C3CCOCC3)ncc2c(=O)[nH]1` (single isomer, unassigned; (+)) [(+)-2-((3,4-trans)-4-methyl-1-((1-methyl-1H-pyrazol-5-yl)methyl)pyrrolidin-3-yl)-7-(tetrahydro-2H-pyran-4-yl)imidazo[5,1-f][1,2,4]triazin-4(3H)-one], the IC50 [1, 16] is reported as < 1000 nM, the “PDE1A selectivity (versus PDE9A2)” value [2, 17] is reported as 243 and the “PDE1B selectivity (versus PDE9A2)” value [3, 18] is reported as 370.

`CC1CN(Cc2cccc(OC(F)(F)F)c2)CC1c1nn2c(C3CCOCC3)ncc2c(=O)[nH]1` (single isomer, unassigned; (+)) [(+)-2-((3,4-trans)-4-methyl-1-(3-(trifluoromethoxy)benzyl)pyrrolidin-3-yl)-7-(tetrahydro-2H-pyran-4-yl)imidazo[5,1-f][1,2,4]triazin-4(3H)-one] was tested, and the IC50 [1, 14] was < 1000 nM, the “PDE1A selectivity (versus PDE9A2)” value [2, 15] was 261 and the “PDE1B selectivity (versus PDE9A2)” value [3, 15] was 99.

In the case of `CC1CN(Cc2ccc3nsnc3c2)CC1c1nn2c(C3CCOCC3)ncc2c(=O)[nH]1` (single isomer, unassigned; (+)) [(+)-2-((3,4-trans)-1-(benzo[c][1,2,5]thiadiazol-5-ylmethyl)-4-methylpyrrolidin-3-yl)-7-(tetrahydro-2H-pyran-4-yl)imidazo[5,1-f][1,2,4]triazin-4(3H)-one], the IC50 [1, 16] is reported as < 1000 nM, the “PDE1A selectivity (versus PDE9A2)” value [2, 17] is reported as 212 and the “PDE1B selectivity (versus PDE9A2)” value [3, 18] is reported as 473.
